In US12421235B2, “Bridged tricyclic carbamoylpyridone compounds and uses thereof” (Gilead Sciences, Inc., priority 2020, dated 2025):

Key:
[1] = Cytotoxicity assay in MT-4 cells; format: cell-based; settings: human, uninfected MT-4 cells, Cell Titer Glo
In short: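 Uninfected MT-4 cells were incubated with 1:3 serially diluted compound in RPMI/10% FBS for 5 days at 37° C. Viability was read by CellTiter-Glo luminescence, with 10 μM puromycin as the baseline cytotoxicity control. Values are the concentration giving a 50% decrease in luminescence, from sigmoidal dose-response fits.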

[2] = High throughput microsomal stability assay (human liver microsomes); format: in vitro ADME; settings: for HLM stability: human liver microsomes, 1 uM compound, NADPH + UDPGA cofactors, 37 C
In short: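 Compounds at 1 uM final, incubated at 37° C. with liver microsomes (2 mg/ml stock, alamethicin-treated) in pH 7.4 phosphate plus NADPH-regenerating/UDPGA cofactors; samples taken 0–70 min. Parent/IS peak-area ratios read by RapidFire QToF MS; half-life from linear fit of initial log decay, scaled to intrinsic clearance.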

[3] = system: HIV-1 (IIIB) in MT-4 cells; test: HIV MT-4 antiviral assay; format: cell-based; settings: Human immunodeficiency virus 1, MT4, 120 h, 5 days, Cell Titer Glo
In short: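 MT-4 cells infected with HIV-1 IIIB (1:250 dilution of concentrated stock) were incubated 5 days at 37 °C with compound in 1:3 serial dilutions in RPMI/10% FBS. Viability was read by CellTiter-Glo luminescence. EC50 was the concentration causing a 50% decrease in luminescence signal, from sigmoidal dose-response fits.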

[4] = system: pLai RLuc reporter virus in MT-4 cells; test: HIV MT-4 serum shift antiviral reporter assay; format: cell-based; settings: Human immunodeficiency virus 1, MT4, 72 h, read-out: RLUC CCM
In short: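 MT-4 cells pre-infected 2 h with reporter virus, then dosed (1:3 dilutions) in medium with 10% FBS alone or plus 50% human serum; 72 h at 37 °C. Renilla luminescence read; EC50 = 50% signal decrease by sigmoidal fit, serum shift = EC50(HS)/EC50(no HS).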

| SMILES | CC50 at 5 days [1] | HLM stability [2] | EC50 [3] | EC50 [4] | MS Cl improvement ([2]; relative to compound B) |
| --- | --- | --- | --- | --- | --- |
| CO[C@@H]1C[C@H](F)[C@H](C)N2C[C@H]1n1cc(C(=O)NCc3c(F)cc(F)cc3F)c(=O)c(O)c1C2=O [Example 37, (3S,4S,6R,7R)-4-fluoro-12-hydroxy-6-methoxy-3-methyl-1,11-dioxo-N-(2,4,6-trifluorobenzyl)-1,4,5,6,7,11-hexahydro-3H-2,7-methanopyrido[1,2-a][1,4]diazonine-10-carboxamide] | 14800 nM | 2.83 mL/min/kg | 1.4 nM | 0.65 nM |  |
| CO[C@@H]1CC(F)(F)[C@H](C)N2C[C@H]1n1cc(C(=O)NCc3c(F)cc(F)cc3F)c(=O)c(O)c1C2=O (single isomer, unassigned) [Example 36] | 27300 nM | 3.3 mL/min/kg | 2.6 nM | 0.33 nM |  |
| CO[C@H]1CC[C@@H](C)N2C[C@H]1n1cc(C(=O)NCc3ccc(F)cc3F)c(=O)c(O)c1C2=O [Example 42, (3R,6S,7R)—N-(2,4-difluorobenzyl)-12-hydroxy-6-methoxy-3-methyl-1,11-dioxo-1,4,5,6,7,11-hexahydro-3H-2,7-methanopyrido[1,2-a][1,4]diazonine-10-carboxamide] | 50000 nM | 9.67 mL/min/kg | 1.9 nM | 0.61 nM |  |
| C[C@H]1CC[C@H](O)[C@@]2(C)CN1C(=O)c1c(O)c(=O)c(C(=O)NCc3ccc(F)cc3F)cn12 [Example 43, (3S,6S,7R)—N-(2,4-difluorobenzyl)-6,12-dihydroxy-3,7-dimethyl-1,11-dioxo-1,4,5,6,7,11-hexahydro-3H-2,7-methanopyrido[1,2-a][1,4]diazonine-10-carboxamide] | 23600 nM | 4.83 mL/min/kg | 1.3 nM | 0.71 nM |  |
| CO[C@H]1CC[C@H](CF)N2C[C@H]1n1cc(C(=O)NCc3ccc(F)cc3F)c(=O)c(O)c1C2=O [Example 41, (3R,6S,7R)—N-(2,4-difluorobenzyl)-3-(fluoromethyl)-12-hydroxy-6-methoxy-1,11-dioxo-1,4,5,6,7,11-hexahydro-3H-2,7-methanopyrido[1,2-a][1,4]diazonine-10-carboxamide] | 19400 nM | 1.83 mL/min/kg | 1.7 nM | 0.56 nM |  |
| CCO[C@H]1C=C[C@H](C)N2C[C@H]1n1cc(C(=O)NCc3c(F)cc(F)cc3F)c(=O)c(O)c1C2=O [Example 25, (3S,6S,7R)-6-ethoxy-12-hydroxy-3-methyl-1,11-dioxo-N-(2,4,6-trifluorobenzyl)-1,6,7,11-tetrahydro-3H-2,7-methanopyrido[1,2-a][1,4]diazonine-10-carboxamide] | 43700 nM | 9.67 mL/min/kg | 4.1 nM | 0.82 nM |  |
| C[C@H]1C=C[C@](C)(O)[C@H]2CN1C(=O)c1c(O)c(=O)c(C(=O)NCc3ccc(F)cc3F)cn12 [Example 17, (1R,10S,13S)—N-[(2,4-difluorophenyl)methyl]-6,13-dihydroxy-10,13-dimethyl-5,8-dioxo-2,9-diazatricyclo[7.4.1.02,7]tetradeca-3,6,11-triene-4-carboxamide] | 31400 nM | 2.83 mL/min/kg | 3 nM | 1.33 nM |  |
| C[C@@H]1CC[C@](C)(O)[C@H]2CN1C(=O)c1c(O)c(=O)c(C(=O)NCc3ccc(F)cc3F)cn12 (single isomer, unassigned) [Example 35] | 11700 nM | 10.3 mL/min/kg | 3.2 nM | 1.45 nM |  |
| C[C@H]1CC[C@H](OC(F)F)[C@H]2CN1C(=O)c1c(O)c(=O)c(C(=O)NCc3c(F)cc(F)cc3F)cn12 [Example 27, (3S,6S,7R)-6-(difluoromethoxy)-12-hydroxy-3-methyl-1,11-dioxo-N-(2,4,6-trifluorobenzyl)-1,4,5,6,7,11-hexahydro-3H-2,7-methanopyrido[1,2-a][1,4]diazonine-10-carboxamide] | 13600 nM | 14.7 mL/min/kg | 1.1 nM | 0.35 nM |  |
| CO[C@H]1CC[C@H](C)N2C[C@H]1n1cc(C(=O)NCc3ccc(F)cc3F)c(=O)c(O)c1C2=O [Example 3, (3S,6S,7R)—N-(2,4-difluorobenzyl)-12-hydroxy-6-methoxy-3-methyl-1,11-dioxo-1,4,5,6,7,11-hexahydro-3H-2,7-methanopyrido[1,2-a][1,4]diazonine-10-carboxamide] | 16500 nM | 2.5 mL/min/kg | 1.5 nM | 0.42 nM | 3.2 times relative to compound B |
| C[C@H]1CC[C@H](O)[C@H]2CN1C(=O)c1c(O)c(=O)c(C(=O)NCc3c(F)cc(F)cc3F)cn12 [Example 2, (3S,6S,7R)-6,12-dihydroxy-3-methyl-1,11-dioxo-N-(2,4,6-trifluorobenzyl)-1,4,5,6,7,11-hexahydro-3H-2,7-methanopyrido[1,2-a][1,4]diazonine-10-carboxamide] | 50000 nM | 2.5 mL/min/kg | 1.8 nM | 0.53 nM |  |
| [2H]C([2H])([2H])O[C@H]1CC[C@H](C)N2C[C@H]1n1cc(C(=O)NCc3ccc(F)cc3F)c(=O)c(O)c1C2=O [Example 34, (3S,6S,7R)—N-(2,4-difluorobenzyl)-12-hydroxy-6-(methoxy-d3)-3-methyl-1,11-dioxo-1,4,5,6,7,11-hexahydro-3H-2,7-methanopyrido[1,2-a][1,4]diazonine-10-carboxamide] | 15100 nM | 4.17 mL/min/kg | 0.9 nM | 0.42 nM |  |
| CO[C@H]1C=C[C@H](C)N2C[C@H]1n1cc(C(=O)NCc3ccc(F)c(Cl)c3F)c(=O)c(O)c1C2=O [Example 9, (3S,6S,7R)—N-(3-chloro-2,4-difluorobenzyl)-12-hydroxy-6-methoxy-3-methyl-1,11-dioxo-1,6,7,11-tetrahydro-3H-2,7-methanopyrido[1,2-a][1,4]diazonine-10-carboxamide] | 4270 nM | 8 mL/min/kg | 1 nM | 0.42 nM |  |
| C[C@H]1CC[C@@](C)(O)[C@H]2CN1C(=O)c1c(O)c(=O)c(C(=O)NCc3ccc(F)cc3F)cn12 [Example 33, (1R,10S,13R)—N-[(2,4-difluorophenyl)methyl]-6,13-dihydroxy-10,13-dimethyl-5,8-dioxo-2,9-diazatricyclo[7.4.1.02,7]tetradeca-3,6-diene-4-carboxamide] | 22800 nM | 5.83 mL/min/kg | 2.1 nM | 0.36 nM |  |
